Measurements as given in US10844013B2, “Phenyl amino piperidine mTORC inhibitors and uses thereof” (Navitor Pharmaceuticals, Inc., priority 2016, dated 2020).
Structures can show the parent of a compound that is named as a salt. Where two headings read alike, the source gives them in different places.

Experiments:
[1] = tested on: pAKT (p-Akt 1/2/3 (Ser473)) in MCF-7 cells; experiment: AlphaLISA Ultra pAKT assay; format: cell-based
Procedure: Example 156: AlphaLISA Ultra pAKT Assay
(§1) Assay Protocol: • 1. MCF-7 cells in Corning 3701 plate and incubate for 20-24 hour. 16,000-20,000 cells will be seeded in 36 μL medium per well. • 2. Change the culture medium with fresh medium and incubate for another 2 hours. • 3. Add 12 μL (4×) compounds into the cell plate by HAMILTON. Final DMSO concentration is 0.5%. Incubate for 2 hours. • 4. Aspirate 38 j L by HAMILTON, 10 μL rest per well. • 5. Add 10 μL 2× lysis buffer using HAMILTON; total volume in wells is 20 μL. Allow cells to shake for 30 min. Cover plate by plastic foil and store plate at −80° C. up to analysis. • 6. Thaw cell lysate at RT and transfer 10 ul lysate to assay plate (Optiplate-384). • 7. Add 5 ul acceptor beads into assay plate and incubation for 2 hours • 8. Add 5 ul donor beads and incubation for 2 hours • 9. Count the plate by EnSpire Multimode Plate Reader

[2] = tested on: pS6K1 (p-p70 S6 Kinase (Thr389)) in MCF-7 cells; experiment: AlphaLISA Ultra pS6K1 assay; format: cell-based; conditions: 2 hours compound incubation
Procedure: Example 155: AlphaLISA Ultra pS6K1 assay
as §1, with “1. Seed” for “1.”, “20˜24” for “20-24”, “12,000˜16,000” for “16,000-20,000”, “μL” for “j L”

[3] = Homo sapiens, MCF7, 2 hours compound incubation
[4] = 2 hours compound incubation, read-out: pAKT in MCF7: IC50

Row | IC50 [1, 3] | IC50 ([2]; Homo sapiens, MCF7, 2 h) | IC50 [1, 4] | IC50 ([2]; read-out: pS6K1 in MCF7: IC50) | Compound
1 |  |  | > 10000 nM | 1000 to 3000 nM | Cc1cc(C)c(C(=O)N2CCN(c3ccccc3S(C)(=N)=O)CC2)cc1NC1CCN(c2ccccc2C#N)CC1 (single isomer, unassigned) [I-50, 2-(4-{[5-(4-{2-[(R or S)-imino(methyl)oxo-λ^6-sulfanyl]phenyl}piperazine-1-carbonyl)-2,4-dimethylphenyl]amino}piperidin-1-yl)benzonitrile]
2 | > 10000 nM | 10 to 1000 nM |  |  | Cc1cc(C)c(C(=O)N2CCN(c3ccccc3C#N)[C@@H](CO)C2)cc1NC1CCN(c2ccccc2C#N)CC1 (single isomer, unassigned) [I-77, 2-[4-({5-[(3R or 3S)-4-(2-Cyanophenyl)-3-(hydroxymethyl)piperazine-1-carbonyl]-2,4-dimethylphenyl}amino)piperidin-1-yl]benzonitrile]
3 | > 10000 nM | 10 to 1000 nM |  |  | Cc1cc(C)c(C(=O)N2CCN(c3cccc(F)c3[S@](C)(=N)=O)CC2)cc1NC1CCN(c2ccccc2C#N)CC1 (single isomer, unassigned) [I-89]
4 | > 10000 nM | 1000 to 3000 nM |  |  | Cc1cc(C)c(C(=O)N2CCN(c3ncccc3[S@](C)(=N)=O)CC2)cc1NC1CCN(c2ccccc2C#N)CC1 (single isomer, unassigned) [I-93]
5 | > 10000 nM | 10 to 1000 nM |  |  | Cc1cc(C)c(C(=O)N2CCN(c3ccccc3S(C)(=N)=O)CC2)nc1NC1CCN(c2ccccc2C#N)CC1 (single isomer, unassigned) [I-126, 2-(4-(3,5-Dimethyl-6-(4-(2-(S-methylsulfonimidoyl)phenyl)piperazine-1-carbonyl)pyridin-2-ylamino)piperidin-1-yl)benzonitrile]
6 | > 10000 nM | 1000 to 3000 nM |  |  | CNC(=O)c1ccccc1N1CCN(C(=O)c2cc(NC3CCN(c4ccccc4C#N)CC3)c(C)cc2C)C[C@@H]1CO (single isomer, unassigned) [I-133]
7 | > 10000 nM | 1000 to 3000 nM |  |  | CNC(=O)c1ccccc1N1CCN(C(=O)c2cc(NC3CCN(c4ccccc4C#N)CC3)c(C)cc2C)C[C@H]1CO (single isomer, unassigned) [I-134]
8 | > 10000 nM | 1000 to 3000 nM |  |  | COc1cccc(N2CCC(Nc3cc(C(=O)N4CCN(c5ccccc5S(N)(=O)=O)CC4)c(C)cc3C)CC2)c1 [I-5, 2-(4-(5-(1-(3-Methoxyphenyl)piperidin-4-ylamino)-2,4-dimethylbenzoyl)piperazin-1-yl) benzenesulfonamide]
9 | > 10000 nM | 1000 to 3000 nM |  |  | CCN(c1cc(C(=O)N2CCN(c3ccccc3S(N)(=O)=O)CC2)c(C)cc1C)C1CCN(c2ccccc2C#N)CC1C (stereo not drawn) [I-10, 2-(4-(5-((1-(2-Cyanophenyl)-3-methylpiperidin-4-yl)(ethyl)amino)-2,4-dimethylbenzoyl)piperazin-1-yl)benzenesulfonamide]
10 | > 10000 nM | 3000 to 5000 nM |  |  | Cc1ccc(C(=O)N2CCN(c3ccccc3S(N)(=O)=O)CC2)cc1NC1CCN(c2ccccc2C#N)CC1 [I-11]

Further lines, the compound ahead of its results:

Row | Compound | IC50 [1, 3] | IC50 ([2]; Homo sapiens, MCF7, 2 h) | IC50 [1, 4] | IC50 ([2]; read-out: pS6K1 in MCF7: IC50)
11 | Cc1cc(C)c(C(=O)N2CCN(c3ccccn3)[C@H](CO)C2)cc1NC1CCN(c2ccccc2C#N)CC1 (single isomer, unassigned) [I-38, 2-[4-({5-[(3S or 3R)-3-(hydroxymethyl)-4-(pyridin-2-yl)piperazine-1-carbonyl]-2,4-dimethylphenyl}amino)piperidin-1-yl]benzonitrile] | > 10000 nM | 3000 to 5000 nM |  | 
12 | Cc1cc(C)c(C(=O)N2CCN(c3ccccc3)[C@H](CO)C2)cc1NC1CCN(c2ccccc2C#N)CC1 (single isomer, unassigned) [I-40, 2-[4-({5-[3S or R-(hydroxymethyl)-4-phenylpiperazine-1-carbonyl]-2,4-dimethylphenyl}amino)piperidin-1-yl]benzonitrile] | > 10000 nM | 10 to 1000 nM |  | 
13 | Cc1cc(C)c(C(=O)N2CCN(c3ccccc3)[C@@H](CO)C2)cc1NC1CCN(c2ccccc2C#N)CC1 (single isomer, unassigned) [I-41, 2-[4-({5-[3R or S-(hydroxymethyl)-4-phenylpiperazine-1-carbonyl]-2,4-dimethylphenyl}amino)piperidin-1-yl]benzonitrile] | > 10000 nM | 1000 to 3000 nM |  | 
14 | Cc1ccc(NC2CCN(c3ccccc3C#N)CC2)cc1C(=O)N1CCN(c2ccccc2)C(CO)C1 (single isomer, unassigned) [I-82, 2-[4-({3-[(3R or S)-3-(hydroxymethyl)-4-phenylpiperazine-1-carbonyl]-4-methylphenyl}amino)piperidin-1-yl]benzonitrile] | > 10000 nM |  |  | 3000 to 5000 nM
15 | Cc1ccc(NC2CCN(c3ccccc3C#N)CC2)cc1C(=O)N1CCN(c2ccccc2)C(CO)C1 (single isomer, unassigned) [I-83, 2-[4-({3-[(3S or R)-3-(hydroxymethyl)-4-phenylpiperazine-1-carbonyl]-4-methylphenyl}amino)piperidin-1-yl]benzonitrile] |  |  | > 10000 nM | 10 to 1000 nM
16 | Cc1ccc(C(=O)N2CCN(c3ccccc3)C(CO)C2)cc1NC1CCN(c2ccccc2C#N)CC1 (single isomer, unassigned) [I-84, 2-[4-({5-[(3R or S)-3-(hydroxymethyl)-4-phenylpiperazine-1-carbonyl]-2-methylphenyl}amino)piperidin-1-yl]benzonitrile] | > 10000 nM |  |  | 1000 to 3000 nM
17 | Cc1ccc(C(=O)N2CCN(c3ccccc3)C(CO)C2)cc1NC1CCN(c2ccccc2C#N)CC1 (single isomer, unassigned) [I-85, 2-[4-({5-[(3S or R)-3-(hydroxymethyl)-4-phenylpiperazine-1-carbonyl]-2-methylphenyl}amino)piperidin-1-yl]benzonitrile] |  |  | > 10000 nM | 10 to 1000 nM
18 | Cc1cc(C)c(C(=O)N2CCN(C(=O)OC(C)(C)C)[C@@H](CO)C2)cc1NC1CCN(c2ccccc2C#N)CC1 [I-7, (R)-tert-Butyl 4-(5-(1-(2-cyanophenyl)piperidin-4-ylamino)-2,4-dimethylbenzoyl)-2-(hydroxymethyl) piperazine-1-carboxylate] | > 10000 nM | 1000 to 3000 nM |  | 
19 | Cc1cc(C)c(C(=O)N2CCN[C@H](CO)C2)cc1NC1CCN(c2ccccc2C#N)CC1 [I-8, (S)-2-(4-(5-(3-(hydroxymethyl)piperazine-1-carbonyl)-2,4-dimethylphenylamino)piperidin-1-yl)benzonitrile] | > 10000 nM | > 10000 nM |  | 
20 | Cc1cc(C)c(C(=O)N2CCN(C(=O)OC(C)(C)C)[C@H](CO)C2)cc1NC1CCN(c2ccccc2C#N)CC1 [I-9, (S)-tert-butyl 4-(5-(1-(2-cyanophenyl)piperidin-4-ylamino)-2,4-dimethylbenzoyl)-2-(hydroxymethyl)piperazine-1-carboxylate] | > 10000 nM | 1000 to 3000 nM |  | 
21 | Cc1nc(C)c(C(=O)N2CCN(c3ccccc3C#N)CC2)cc1NC1CCN(c2ccccc2C#N)CC1 [I-13, 2-(4-(5-(4-(2-Cyanophenyl)piperazine-1-carbonyl)-2,6-dimethylpyridin-3-ylamino)piperidin-1-yl)benzonitrile] | > 10000 nM | 3000 to 5000 nM |  | 
22 | Cc1cc(C)c(C(=O)N2CCN(c3cccc(F)c3S(N)(=O)=O)CC2)nc1NC1CCN(c2ccccc2C#N)CC1 [I-16, 2-(4-(6-(1-(2-Cyanophenyl)piperidin-4-ylamino)-3,5-dimethylpicolinoyl)piperazin-1-yl)-6-fluorobenzenesulfonamide] | > 10000 nM | 10 to 1000 nM |  | 
23 | Cc1cc(C)c(C(=O)N2CCN(c3ccccc3C#N)CC2)cc1NC1CCN(c2cccc(Cl)c2)CC1 [I-17, 2-(4-(5-(1-(3-Chlorophenyl)piperidin-4-ylamino)-2,4-dimethylbenzoyl)piperazin-1-yl)benzonitrile] | > 10000 nM | 1000 to 3000 nM |  | 
24 | Cc1cc(C)c(C(=O)N2CCN(c3ccccc3C#N)CC2)cc1NC1CCN(c2cccc(C#N)c2)CC1 [I-18, 2-(4-(5-(1-(3-Cyanophenyl)piperidin-4-ylamino)-2,4-dimethylbenzoyl)piperazin-1-yl)benzonitrile trifluoroacetate] | > 10000 nM | 1000 to 3000 nM |  | 
25 | Cc1cc(C)c(C(=O)N2CCN(c3cccc(F)c3S(=O)(=O)N=C(N(C)C)N(C)C)CC2)cc1NC1CCN(c2ccccc2C#N)CC1 [I-19, 2-{2-[4-(5-{[1-(2-cyanophenyl)piperidin-4-yl]amino}-2,4-dimethylbenzoyl)piperazin-1-yl]-6-fluorobenzenesulfonyl}-1,1,3,3-tetramethylguanidine] | > 10000 nM | 1000 to 3000 nM |  | 
26 | Cc1cc(C)c(C(=O)N2CCN(c3ccccc3)[C@H](C(C)(C)O)C2)cc1NC1CCN(c2ccccc2C#N)CC1 [I-20] | > 10000 nM | 1000 to 3000 nM |  | 
27 | Cc1cc(C)c(C(=O)N2CCN(c3ccccc3)[C@@H](C(C)(C)O)C2)cc1NC1CCN(c2ccccc2C#N)CC1 [I-21] | > 10000 nM | 3000 to 5000 nM |  | 
